According to patent publication US12521439B2, “Methods and materials for modulating Nrf2 pathway” (The General Hospital Corporation, priority 2019, dated 2026):

Tests used:
[1] = tested on: tumour-infiltrating CD4+ and CD8+ T cells; assay: Ex vivo stimulation of tumour-infiltrating T cells (anti-CD3/anti-CD28); format: cell-based, mice; details: cells from OBT-treated tumours, cultured 3 days
Description: To confirm reversion of T cell exhaustion and activation of cytotoxic T cells by OBT, tumour-infiltrating CD4+ and CD8+ T cells (n=3) were isolated and cultured in the presence of anti-CD3 and anti-CD28 antibodies to mimic an antigenic stimulation.

[2] = Pharmacokinetics after single i.p. administration; format: in vivo, male Swiss Albino mice
Protocol: Pharmacokinetics studies: These studies were performed by SAI Lifesciences using Male Swiss Albino mice. OBT was resuspended in a solution formulation of 10% DMA, 10% EtOH, 10% PEG400 in 70% of (2-hydroxypropyl)-[…] (HPβCD). OBT was administered by intraperitoneal (i.p.) injection at 7.5 mg/kg. Blood samples were collected from mice, at 0, 0.08, 0.25, 0.5, 1, 2, 4, 8 and 24 hr. Immediately after blood collection, plasma was harvested by centrifugation and stored until analysis. After collection of blood, brain samples were collected from each mouse at 0.5, 4 and 24 h. Tissue samples were homogenized using ice-cold phosphate buffer saline (pH7.4) and homogenates were stored until analysis. Total homogenate volume was three times the tissue weight. Plasma samples were quantified by LC-MS/MS method (LLOQ=1.00 ng/mL) for plasma and brain.

HO1, NQO1, TXNRD2 mRNA = assay: qRT-PCR of Nrf2 target genes in cancer cells; format: cell-based, human
Protocol: (§1) Real-time qRT-PCR: Total RNA isolation from cultured cells was performed using RNeasy kit (Qiagen), followed by reverse transcription with OneScript cDNA synthesis Kit (ABM). mRNA expression of different genes was then analyzed by quantitative PCR using PowerUp SYBR Green Master Mix (Applied Biosystems) and performed using a QuantStudio3 real-time PCR system (Applied Biosystems). Primer sequences for HO1, NQO1, TXNRD2 were obtained from the MGH primer bank and were as follows: HO1 Forward, 5′-[…]-3′ and reverse 5′-[…]-3′; NQO1 Forward 5′-[…]-3′ and reverse 5′-[…]-3′ and Txnrd2 forward 5′-[…]-3 and reverse 5′-[…]. Oligonucleotides were synthesized by the CCIB DNA Core Facility at Massachusetts General Hospital. Expression of human GAPDH was used to mRNA normalization and relative mRNA expression was calculated using the comparative Ct method.

[3] = tested on: patient-derived GBM8 GSC tumors; assay: FDG-PET imaging of orthotopic GSC brain tumors; format: in vivo, mice; details: 3 doses of 10 mg/kg within 24 h, imaged 4 h after last dose; tumor to muscle ratio
Description: In vivo Tumor Models: Animal experiments performed by our laboratory were approved by the Massachusetts General Hospital Subcommittee on Research Animal Care. Female athymic nude mice (6-8 weeks) were used in all studies with the exception of pharmacokinetics analysis. For brain tumors xenograft model, GBM8 cells (1×10^5 cells/mouse) stably expressing Fluc were stereotactically implanted into the left striatum of animals. Following implantation, animals were regularly imaged for Fluc to monitor brain tumor growth. To generate the breast cancer model, MDA-MB-231 cells (2.5×10^5 cells/mouse) expressing Fluc were mixed with Matrigel 1:1 (v/v) (BD Matrigel) and injected into the mammary fat pad of mice. Tris-OBT was dissolved in PBS and administered intraperitoneally. Tumor volumes were measured using a caliper and calculated according to the following formula: volume=(width)^2×length/2. […]
FDG-PET imaging: Mouse PET/CT scans (n=6, 3 per group) were performed sequentially using a custom-designed mouse bed and PET/CT gantry adapter. […] The same ROIs are then copied to the matching PET images for quantification of the ^18F-FDG PET signal as the standard uptake values (SUVs). […]

[4] = tested on: HO1 transcripts in MDA-MB-231 tumors; assay: HO1 mRNA in fat pad breast tumors in vivo; design: species or system mice; details: 7.5 mg/kg i.p. for four consecutive days
Protocol: as §1
In vivo Tumor Models: Animal experiments performed by our laboratory were approved by the Massachusetts General Hospital Subcommittee on Research Animal Care. Female athymic nude mice (6-8 weeks) were used in all studies with the exception of pharmacokinetics analysis. For brain tumors xenograft model, GBM8 cells (1×10^5 cells/mouse) stably expressing Fluc were stereotactically implanted into the left striatum of animals. […] Tumor volumes were measured using a caliper and calculated according to the following formula: volume=(width)^2×length/2. […]

COC1=CC(=O)C(O)=C/C1=C/C=C/c1ccccc1 [OBT, (Z)-2-hydroxy-5-methoxy-4-((E)-3-phenylallylidene)cyclohexa-2,5-dien-1-one]
response of CD4+ T cells to antigenic stimulus [1]: no change | response of CD8+ T cells to antigenic stimulus (proliferation, Ki67, granzyme B) [1]: significantly more responsive | Vss relative to normal volume of total body water (0.7 L/kg) ([2]; 7.5 mg/kg i.p.): 3 fold | systemic plasma clearance ([2]; 7.5 mg/kg i.p.): high | time up to which plasma concentrations were detected ([2]; 7.5 mg/kg i.p., LC-MS/MS): up to 24 hrs | blood-brain barrier penetration ([2]; intact BBB): efficiently penetrates | Kp at 0.5 h ([2]; male, Swiss Albino, mouse, brain, ip, 7.5 mg/kg, 0.5 hr after single i.p. dose, read-out: brain-to-plasma ratio): 0.27 | Kp at 4 h ([2]; male, Swiss Albino, mouse, brain, ip, 7.5 mg/kg, 4 hrs after single i.p. dose, read-out: brain-to-plasma ratio): 0.5 | Tmax ([2]; male, Swiss Albino, mouse, ip, plasma, 7.5 mg/kg i.p.): 30 min | half-life ([2]; male, Swiss Albino, mouse, plasma, ip, 7.5 mg/kg i.p., read-out: terminal plasma half-life): 24 min | NQO1 and TXNRD2 mRNA (HO1, NQO1, TXNRD2 mRNA; U87 and MDA-MB-231 cells): upregulated | HO1 mRNA expression (HO1, NQO1, TXNRD2 mRNA; different cancer cells, 8 hours, normalized to GAPDH): strong increase | decrease in FDG tumor uptake [3]: ~50% | upregulation of HO1 transcripts in the tumor [4]: 7 fold
